Measurements taken from article PMC3984052 (Bioorganic & medicinal chemistry, 2014).

Assays:
[1] = in vivo; for Tolerability after repeated dosing: mouse
[2] = test system: PrP^C on the cell surface of human T98G glioblastoma cells; type: cell-based; conditions: EC50 ratio

With `COc1ccc(Cl)cc1C(=O)N1CCN(c2cccc(Cl)c2)CC1` [IND30802] the “Brain concentration relative to the EC50 value determined by ELISA” value ([1]; female, CD-1, mouse) was 100 × and the “Tolerability after repeated dosing” value [1] was “well tolerated”.

With `NC(=O)c1ccccc1NC(=O)c1cccnc1N1CCCCC1` [IND87406] the “Tolerability after repeated dosing” value [1] was “well tolerated”.

For `O=C(Cc1ccc(-c2ccccc2)cc1)NCc1ccccc1` [IND116065], the “Potency relative to the bromo analog (IND61769)” value [2] was 5 fold.
